# In US12533353B2, “Methods of treatment of cancer comprising CDC7 inhibitors” (CARNA BIOSCIENCES, INC., priority 2018, dated 2026):
# Read-outs that look alike come from different tables or passages of the source.
# Legend:
# [1] = tested on: Phosphorylation of MCM2 at Ser53 (Colo-205 cells); assay: Durability of Cdc7 inhibition after washout (pMCM2 Ser53); type: cell-based, human; settings: 24 hours after washout
# Protocol: The durability of drug-induced Cdc7 inhibition was investigated in Colo-205 cells treated with two concentrations of SRA141 (0.1 μM and 1 μM) for 48 hours, followed by either immediate cell harvest, or removal of the drug incubate followed by an additional 24 hours incubation prior to cell harvest. Phosphorylation of MCM2 at Ser53, a target site of Cdc7 activity, was compared between the two conditions.
# [2] = tested on: Colo-205 colon cancer cells; assay: Sub-G1 fraction by propidium iodide flow cytometry; type: cell-based, human; settings: 1 μM to 10 μM, 48 h incubation
# Protocol: The differential cytotoxic activity of SRA141 in Colo-205 colon cancer cells versus normal human dermal fibroblast cells (NHDF) was assessed at drug concentrations ranging from 0.03 to 33.3 μM (48 h incubation). Following treatment, cells labelled with propidium iodide were analyzed by flow cytometry to determine the percentage of dying cells found in sub-G1 fractions as a consequence of apoptosis-mediated DNA fragmentation. […] In contrast, fewer than 10% of the normal cells were apoptotic as determined by sub-G1 fraction, consistent with published reports showing minimal cytotoxicity of non-transformed cells following Cdc7 inhibition (Montagnoli, 2004). Thus, these findings support a potential therapeutic index for SRA141 between tumor and non-transformed tissues.
# MV-4-11 tumor xenografts [3] = assay: Rat xenograft model of AML (MV-4-11), SRA141 monotherapy; type: in vivo; design: complete regressions (tumor volume <13.5 mm3 for 3 consecutive measurements): unit not given here; settings: for tumor growth inhibition (TGI): 5 days of 7-day cycle, 4 weeks, Day 42; for median tumor volume: in mm³ (unit assumed)
# Protocol: The efficacy of a Cdc7 inhibitor (compound SRA141) as a monotherapy was tested in a rat xenograft model of Acute Myelogenous Leukemia (AML) (FIG. 2). Female rnu/rnu rats were inoculated subcutaneously with 1×10^7 MV-4-11 human acute myelogenous leukemia cells. MV-4-11 cells were injected in a totally volume of 0.1 mL PBS in 1:1 Matrigel®. Rats began SRA141 treatment when tumors reached an average size of 300-400 mm^3. Rats bearing MV-4-11 tumor xenografts were orally administered (i) vehicle control (0.5% CMC-Na/1% Poloxamer 188) or (ii) SRA141 at 75 mg/kg BID for 5 consecutive days of a 7-day cycle for 4 weeks or (iii) SRA141 at 150 mg/kg QD for 5 consecutive days of a 7-day cycle for 4 weeks (n=10 per treatment group). Tumor volume measurements were taken biweekly and body weight measurements were taken biweekly to day 15, then daily to end of study. Tumor growth inhibition was calculated on Day 42, the final day of the study.
# [4] = Plasma concentrations by LC-MS/MS after repeat oral dosing, non-tumor bearing nude rats; type: in vivo, rat; settings: oral 50, 100 or 150 mg/kg, after last dose
# Protocol: Non-tumor bearing female nude rats were treated orally with SRA141 (n=3 per route) at 50 mg/kg (QD×12 days) or 100 or 150 mg/kg (5 days on/2 days off/5 days on). The vehicle was 0.5% CMC-Na/1% Lutrol in water. SRA141 plasma concentrations were determined by LC-MS/MS following last dose.
# [5] = tested on: normal human myeloid progenitors (normal bone marrow); assay: 3D growth in methylcellulose matrix, 14 days; type: cell-based
# Protocol: (§1) The anti-proliferative activity of SRA141 (0.3-5 μM) was also evaluated in additional 3D growth studies conducted in a methylcellulose growth matrix using normal human myeloid (n=3) and AML-blast progenitors incubated for 14 days.
# AML-blast progenitors = assay: 3D growth in methylcellulose matrix, 14 days; type: cell-based
# Protocol: as §1
# MV-4-11 tumor xenografts [6] = assay: Rat xenograft model of AML (MV-4-11), SRA141 monotherapy; type: in vivo; settings: 75 mg/kg
# [7] = tested on: three AML cell lines (EOL-1, Molm-16 and MV-4-11) and three AML PDX models (AM5512, AM7440 and AM7577); assay: AML 3D cultures, summary over models; type: cell-based; settings: five of the six models; read-out: IC50 range
# Protocol: The activity of SRA141 was investigated in in vitro and ex vivo three-dimensional (3D) cultures prepared from three AML cell lines (EOL-1, Molm-16 and MV-4-11) and three AML PDX models (AM5512, AM7440 and AM7577), respectively. Tumor cultures were treated with SRA141 (0.08 to 33 μM) for 5 days.
# [8] = tested on: MCM2 at Ser40/41 and Ser53 (MV411 cells); assay: Phosphorylation status of Cdc7 target MCM2 in cells; type: cell-based
# Protocol: MV411 cells were also treated with SRA141 in a dose-dependent manner (at concentrations between 0.5 and 3.3 μM) and were subsequently assessed for phosphorylation status of MCM2 at Ser40/41 and Ser53.
# [9] = Absolute oral bioavailability; settings: dog, in vivo, read-out: absolute oral bioavailability (% F)
# [10] = tested on: MCM2, Ser40/41 and Ser53 (Colo-205 cells); assay: Phosphorylation status of Cdc7 target MCM2 in cells; type: cell-based, human; settings: Colo-205, 8 to 24 hours
# Protocol: Colo-205 cells were treated with SRA141 (at concentrations between 0.033 and 3.3 μM) for 8 to 24 hours with subsequent assessment of the phosphorylation status of the downstream targets for Cdc7 (MCM2, Ser40/41 and Ser53), and the putative off-target kinases CDK8 (STAT1, Ser727); CDK7 and 9 (RNA pol II, Ser2); LATS2 (YAP1, Ser127) as well as the levels of MCL-1, known to be indirectly controlled by CDK9 (Gregory, 2015).
smiles,measurement,setting,value
CCOC(=O)C1=C(NN2CCN(CC(F)(F)F)CC2)O/C(=C\c2c[nH]c3ncccc23)C1=O [SRA141],Cdc7 activity (pMCM2 Ser53) after washout,[1]; 0.1 μM for 48 hours,recovery of Cdc7 activity by 24 hours following compound washout
same,Cdc7 activity (pMCM2 Ser53) after washout,[1]; 1 μM for 48 hours,prolonged pMCM2 inhibition was observed at 24 hours following washout
same,percentage of dying cells in sub-G1 fraction,[2],≤ 62%
same,complete regressions (tumor volume <13.5 mm3 for 3 consecutive measurements),MV-4-11 tumor xenografts [3]; 75 mg/kg BID,1
same,partial regressions (tumor volume <50% of initial volume for 3 consecutive measurements),MV-4-11 tumor xenografts [3]; 75 mg/kg BID,3
same,tumor growth inhibition (TGI),MV-4-11 tumor xenografts [3]; 75 mg/kg BID,86.1%
same,median tumor volume,MV-4-11 tumor xenografts [3]; 75 mg/kg group (n=8),1838
same,partial regressions,MV-4-11 tumor xenografts [3]; 150 mg/kg QD,2
same,tumor growth inhibition (TGI),MV-4-11 tumor xenografts [3]; 150 mg/kg QD,86.7%
same,median tumor volume,MV-4-11 tumor xenografts [3]; 150 mg/kg group (n=9),1764
same,tolerability,MV-4-11 tumor xenografts [3]; all treatments,well tolerated with no significant body weight loss
same,systemic exposure versus dose,[4],systemic exposure increased with an increase in the oral dose
same,IC50,"[5]; Normal bone marrow 111, read-out: IC50",165 nM
same,IC50,"[5]; Normal bone marrow 525 (first line), read-out: IC50",375 nM
same,IC50,"[5]; Normal bone marrow 525 (second line), read-out: IC50",212 nM
same,IC50,"[5]; mean of 3 samples, read-out: Mean normal bone marrow IC50",251 ± 110 nM
same,IC50,"[5]; read-out: mean IC50, normal bone marrow preparations",250 nM
same,primary AML samples responding with a Therapeutic Index [(Primary AML IC50)÷(BMNC control IC50)],AML-blast progenitors; 9 primary AML samples,5 out of 9
same,IC50,"AML-blast progenitors; AML810 censored, read-out: mean IC50, AML samples",~160 nM
same,IC50,"AML-blast progenitors; AML-blast progenitor 180, read-out: IC50",337 nM
same,IC50,"AML-blast progenitors; AML-blast progenitor 190, read-out: IC50",73 nM
same,IC50,"AML-blast progenitors; AML-blast progenitor 200, read-out: IC50",119 nM
same,IC50,"AML-blast progenitors; AML-blast progenitor 250, read-out: IC50",159 nM
same,IC50,"AML-blast progenitors; AML-blast progenitor 260, read-out: IC50",140 nM
same,IC50,"AML-blast progenitors; AML-blast progenitor 717, read-out: IC50",118 nM
same,IC50,"AML-blast progenitors; AML-blast progenitor 810 (sample censored), read-out: IC50",831 nM
same,IC50,"AML-blast progenitors; AML-blast progenitor 915, read-out: IC50",177 nM
same,IC50,"AML-blast progenitors; AML-blast progenitor 917, read-out: IC50",202 nM
same,IC50,"AML-blast progenitors; with AML 810, read-out: Mean AML-blast progenitor IC50 (with AML 810)",240 ± 234 nM
same,IC50,"AML-blast progenitors; without AML 810, read-out: Mean AML-blast progenitor IC50 (without AML 810)",166 ± 80 nM
same,"TGI, additional studies",MV-4-11 tumor xenografts [6]; day 27 of treatment,92%
same,"TGI, additional studies",MV-4-11 tumor xenografts [6]; day 34 of treatment,85%
same,IC50,[7],150 to 1600 nM
same,concentration from which MCM2 phosphorylation at Ser40/41 and Ser53 was reduced,[8],0.5 µM
same,bioavailability,"[9]; free base suspension, fasted, range given for mouse, rat and dog together",31 to 54%
same,bioavailability,[9]; two proposed clinical drug product capsule presentations,41 to 62%
same,concentration from which MCM2 phosphorylation at Ser40/41 and Ser53 was reduced,[10],0.033 µM
